According to patent US10155987B2, “Methods of predicting resistance to JAK inhibitor therapy” (Dana-Farber Cancer Institute, Inc., priority 2012, dated 2018):
Each block holds one compound with its values, some of them ahead of it.

Key:
[1] = molecular target: JAK2 (Homo sapiens, UniProt O60674); details: cited from earlier work
[2] = test system: BaF3.EpoR cells expressing JAK2V617F with Y931C, G935R, R938L, 1960V or E985K mutation; test: Cell growth in response to JAK2 inhibitors, all five resistance mutants (stated together); format: cell-based, murine; details: summary statement
Protocol: Cell growth in response to various drug concentrations was measured by trypan blue (Sigma) exclusion or with the CellTiter 96® AQueous One Solution Cell Proliferation Assay reagent (Promega, Madison, Wis.).
BaF3.EpoR cell lines expressing potential drug resistant mutant JAK2V617F were generated by retroviral infection, as described previously. […] Polyclonal populations of these cells were used to determine changes in growth in response to various JAK2 inhibitors.

[3] = test system: BaF3.EpoR cells expressing JAK2V617F with Y931C mutation; test: Cell growth in response to JAK2 inhibitors, Y931C mutant; format: cell-based, murine
[4] = test system: BaF3.EpoR cells expressing JAK2V617F with G935R mutation; test: Cell growth in response to JAK2 inhibitors, G935R mutant; format: cell-based, murine

Chain of JAK2 (O60674 whole entry, species assumed): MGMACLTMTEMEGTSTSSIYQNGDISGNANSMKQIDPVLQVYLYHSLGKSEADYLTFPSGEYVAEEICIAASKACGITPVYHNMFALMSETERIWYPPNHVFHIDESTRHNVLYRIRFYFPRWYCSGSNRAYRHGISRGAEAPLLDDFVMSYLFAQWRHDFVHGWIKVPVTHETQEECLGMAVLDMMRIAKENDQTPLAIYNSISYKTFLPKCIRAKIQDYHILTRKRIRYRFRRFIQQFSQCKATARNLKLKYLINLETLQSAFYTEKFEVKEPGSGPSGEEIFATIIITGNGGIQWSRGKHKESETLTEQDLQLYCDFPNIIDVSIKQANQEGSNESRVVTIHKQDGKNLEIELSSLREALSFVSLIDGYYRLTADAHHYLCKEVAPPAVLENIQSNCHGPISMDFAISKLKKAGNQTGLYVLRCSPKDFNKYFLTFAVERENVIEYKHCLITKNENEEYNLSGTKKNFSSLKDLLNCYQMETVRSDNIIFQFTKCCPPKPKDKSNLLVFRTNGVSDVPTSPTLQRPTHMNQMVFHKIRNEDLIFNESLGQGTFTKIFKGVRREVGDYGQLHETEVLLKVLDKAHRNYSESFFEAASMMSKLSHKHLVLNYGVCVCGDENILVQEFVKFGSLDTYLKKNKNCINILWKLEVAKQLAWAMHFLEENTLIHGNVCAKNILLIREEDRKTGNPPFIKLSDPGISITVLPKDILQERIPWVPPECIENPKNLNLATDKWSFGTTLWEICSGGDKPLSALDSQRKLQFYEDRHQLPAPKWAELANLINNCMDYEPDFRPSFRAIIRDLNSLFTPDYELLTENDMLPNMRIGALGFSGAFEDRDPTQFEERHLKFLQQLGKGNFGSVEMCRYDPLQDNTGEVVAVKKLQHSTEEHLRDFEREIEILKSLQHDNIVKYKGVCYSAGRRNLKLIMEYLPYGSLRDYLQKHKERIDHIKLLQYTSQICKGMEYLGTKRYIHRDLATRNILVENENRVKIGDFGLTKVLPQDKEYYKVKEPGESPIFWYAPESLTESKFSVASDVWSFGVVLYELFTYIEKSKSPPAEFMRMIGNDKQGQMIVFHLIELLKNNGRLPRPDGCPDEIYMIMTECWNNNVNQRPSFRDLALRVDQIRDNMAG

Structure (SMILES): C[C@H](Nc1cc(-c2cnn(C)c2)cc(Nc2cnccn2)n1)c1ccc(F)cc1 [NS018]
- IC50 [1]: < 0.001 µM
- selectivity for JAK2 over other JAK-family kinases [1]: 30-50 fold

Structure (SMILES): Cc1cnc(Nc2ccc(OCCN3CCCC3)cc2)nc1Nc1cccc(S(=O)(=O)NC(C)(C)C)c1 [TG101348]
- resistance conferred by the mutations (in words) [2]: cross-resistance

- increase in EC50 compared to native JAK2V617F [3]: > 7 fold
- EC50 ([3]; Mus musculus): > 10 µM
- increase in EC50 compared to native JAK2V617F [4]: > 7 fold
- EC50 ([4]; Mus musculus): > 10 µM
Structure (SMILES): Cc1cc(Nc2nc(N[C@@H](C)c3ncc(F)cn3)ncc2Cl)n[nH]1 [AZD1480]
- resistance conferred by the mutations (in words) [2]: cross-resistance

Structure (SMILES): N#CCNC(=O)c1ccc(-c2ccnc(Nc3ccc(N4CCOCC4)cc3)n2)cc1 [CYT-387]
- resistance conferred by the mutations (in words) [2]: cross-resistance
